We go through 23 compounds from US8574563B2 (Bristol-Myers Squibb Company, priority 2006, dated 2013).

pEC50: −log10 of the molar value.

The subject of the first experiment is HCV 1b-377-neo replicon cells. The experiment in a line: HCV replicon assay, HCV 1b-377-neo replicon cells (1b FRET). To be noted: HCV 1b-377-neo replicon cells; HCV 1b genotype; read-out: EC50 range against HCV 1b (Table 2, Range). The experiment is classed as cell-based, Hepatitis C virus genotype 1b. The method, then: An HCV Replion assay was utilized in the present disclosure, and was prepared, conducted and validated as described in commonly owned PCT/US2006/022197 and in O'Boyle et. al. Antimicrob Agents Chemother. 2005 April; 49(4):1346-53.
HCV 1b-377-neo replicon cells were used to test the currently described compound series as well as cells resistant to compound A due to a Y2065H mutation in NS5A (described in application PCT/US2006/022197). The compounds tested were determined to have more than 10-fold less inhibitory activity on cells resistant to compound A than wild-type cells indicating a related mechanism of action between the two compound series. Thus, the compounds of the present disclosure can be effective to inhibit the function of the HCV NS5A protein and are understood to be as effective in combinations as previously described in application PCT/US2006/022197 and commonly owned WO/04014852. Further, the compounds of the present disclosure can be effective against the HCV 1b genotype. It should also be understood that the compounds of the present disclosure can inhibit multiple genotypes of HCV. […] In one embodiment compounds of the present disclosure are active against the 1a, 1b, 2a, 2b, 3a, 4a, and 5a genotypes.
(In general: Replicon systems follow genome replication, usually without infectious particles.)
As a reminder, the pEC50 is the negative decadic logarithm of the EC50, by convention in mol/L. Consider `C[C@@](O)(C(=O)N1CCC[C@H]1c1ncc(-c2ccc(-c3ccc(-c4cnc([C@@H]5CCCN5C(=O)[C@@](C)(O)c5ccccc5)[nH]4)cc3)cc2)[nH]1)c1ccccc1` [Example 3, (2S,2′S)-1,1′-(4,4′-biphenyldiylbis(1H-imidazole-5,2-diyl(2)-2,1-pyrrolidinediyl))bis(1-oxo-2-phenyl-2-propanol)], for which the pEC50 is 9.00 to 12.00.
In the case of `O=C(Cc1ccccc1)N1CCC[C@H]1c1ncc(-c2ccc(-c3ccc(-c4cnc([C@@H]5CCCN5C(=O)Cc5ccccc5)[nH]4)cc3)cc2)[nH]1` [Example 7, 5,5′-(4,4′-biphenyldiyl)bis(2-((2)S-1-(phenylacetyl)-2-pyrrolidinyl)-1H-imidazole)], the pEC50 is 9.00 to 12.00.
The same measure, in the same setting: the figure for `C[C@@H](O)C(=O)N1CCC[C@H]1c1ncc(-c2ccc(-c3ccc(-c4cnc([C@@H]5CCCN5C(=O)[C@@H](C)O)[nH]4)cc3)cc2)[nH]1` [Example 15, (2R,2′R)-1,1′-(4,4′-biphesnyldiylbis(1H-imidazole-5,2-diyl(2S)-2,1-pyrrolidinediyl))bis(1-oxo-2-propanol)] is 7.00 to 9.00; for `O=C(C(c1ccccc1)N1CC[C@H](F)C1)N1CCC[C@H]1c1ncc(-c2ccc(-c3ccc(-c4cnc([C@@H]5CCCN5C(=O)C(c5ccccc5)N5CC[C@H](F)C5)[nH]4)cc3)cc2)[nH]1` (stereo partly drawn) [Example 19, 5,5′-(4,4′-biphenyldiyl)bis(2-((2S)-1-(((3S)-3-fluoro-1-pyrrolidinyl)(phenyl)acetyl)-2-pyrrolidinyl)-1H-imidazole)] it is 9.00 to 12.00.
Consider `O=C(C(c1ccccc1)N1CC[C@H](F)C1)N1CCC[C@H]1c1ncc(-c2ccc(-c3ccc(-c4cnc([C@@H]5CCCN5C(=O)C(c5ccccc5)N5CC[C@H](F)C5)[nH]4)cc3)cc2)[nH]1` (stereo partly drawn) [Example 20, 5,5′-(4,4′-biphenyldiyl)bis(2-((2S)-1-(((3S)-3-fluoro-1-pyrrolidinyl)(phenyl)acetyl)-2-pyrrolidinyl)-1H-imidazole)], for which the negative logarithm of the EC50 (pEC50) is 7.00 to 9.00.

The same experiment, now with this note: Hepatitis C virus, HCV 1b-377-neo replicon cells; HCV 1b genotype; read-out: EC50 range against HCV 1b (Table 2, Range).
`C[C@H]1OC(=O)NC1C(=O)N1CCC[C@H]1c1ncc(-c2ccc(-c3ccc(-c4cnc([C@@H]5CCCN5C(=O)C5NC(=O)O[C@@H]5C)[nH]4)cc3)cc2)[nH]1` (stereo in doubt) [cj-133, (4S,5R,4′S,5′R)-4,4′-(4,4′-biphenyldiylbis(1H-imidazole-5,2-diyl(2S)-2,1-pyrrolidinediylcarbonyl))bis(5-methyl-1,3-oxazolidin-2-one)]: the negative-log EC50 (pEC50) was 7.00 to 9.00.
On to `COC(=O)NC1CCC(C(=O)N2CCC[C@H]2c2ncc(-c3ccc(-c4ccc(-c5cnc([C@@H]6CCCN6C(=O)C6CCC(NC(=O)OC)C6)[nH]5)cc4)cc3)[nH]2)C1` (stereo in doubt) [cj-149, dimethyl (4,4′-biphenyldiylbis(1H-imidazole-5,2-diyl(2S)-2,1-pyrrolidinediylcarbonyl(1R,3S)-3,1-cyclopentanediyl))biscarbamate], for which the pEC50 is 7.00 to 9.00.
Consider `CN(C)[C@@H](C(=O)N1CCC[C@H]1c1ncc(-c2ccc(-c3ccc(-c4cnc([C@@H]5CCCN5C(=O)[C@@H](c5ccccc5)N(C)C)[nH]4)cc3)cc2)[nH]1)c1ccccc1` [Example 1, (1R,1′R)-2, 2′-(4,4′-biphenyldiylbis (1H-imidazole-5,2-diyl(2S)-2,1-pyrrolidinediyl))bis(N,N-dimethyl-2-oxo-1-phenylethanamine)], for which the pEC50 was 9.00 to 12.00.
As for `O=C([C@H](O)c1ccccc1)N1CCC[C@H]1c1ncc(-c2ccc(-c3ccc(-c4cnc([C@@H]5CCCN5C(=O)[C@H](O)c5ccccc5)[nH]4)cc3)cc2)[nH]1` [Example 2, (1R,1′R)-2,2′-(4,4′-biphenyldiylbis(1H-imidazole-5,2-diyl(2S)-2,1-pyrrolidinediyl))bis(2-oxo-1-phenylethanol)], the negative logarithm of the EC50 (pEC50) was 9.00 to 12.00.
The same measure, in the same setting: the figure for `COC(=O)N[C@@H](C(=O)N1CCC[C@H]1c1ncc(-c2ccc(-c3ccc(-c4cnc([C@@H]5CCCN5C(=O)[C@H](NC(=O)OC)c5ccccc5)[nH]4)cc3)cc2)[nH]1)c1ccccc1` [Example 4, dimethyl (4,4′-biphenyldiylbis(1H-imidazole-5,2-diyl(2S)-2,1-pyrrolidinediyl((1R)-2-oxo-1-phenyl-2,1-ethanediyl)))biscarbamate] is 9.00 to 12.00; for `CN(C)[C@H](C(=O)N1CCC[C@H]1c1ncc(-c2ccc(-c3ccc(-c4cnc([C@@H]5CCCN5C(=O)[C@H](c5ccccc5)N(C)C)[nH]4)cc3)cc2)[nH]1)c1ccccc1` [Example 5, (1S,1′S)-2,2′-(4,4′-biphenyldiylbis(1H-imidazole-5,2-diyl(2S)-2,1-pyrrolidinediyl))bis(N,N-dimethyl-2-oxo-1-phenylethanamine)] it is 7.00 to 9.00.
For `O=C(c1ccccc1)N1CCC[C@H]1c1ncc(-c2ccc(-c3ccc(-c4cnc([C@@H]5CCCN5C(=O)c5ccccc5)[nH]4)cc3)cc2)[nH]1` [Example 6, 5,5′-(4,4′-biphenyldiyl)bis(2-((2S)-1-benzoyl-2-pyrrolidinyl)-1H-imidazole)], the negative logarithm of the EC50 (pEC50) was 7.00 to 9.00.
As for `CO[C@@H](C(=O)N1CCC[C@H]1c1ncc(-c2ccc(-c3ccc(-c4cnc([C@@H]5CCCN5C(=O)[C@H](OC)c5ccccc5)[nH]4)cc3)cc2)[nH]1)c1ccccc1` [Example 8, 5,5′-(4,4′-biphenyldiyl)bis(2-((2S)-1-((2R)-2-methoxy-2-phenylacetyl)-2-pyrrolidinyl)-1H-imidazole)], the pEC50 was 9.00 to 12.00.
In the case of `O=C([C@H](O)Cc1ccccc1)N1CCC[C@H]1c1ncc(-c2ccc(-c3ccc(-c4cnc([C@@H]5CCCN5C(=O)[C@H](O)Cc5ccccc5)[nH]4)cc3)cc2)[nH]1` [Example 9, (2R,2′R)-1,1′-(4,4′-biphenyldiylbis(1H-imidazole-5,2-diyl(2S)-2,1-pyrrolidindiyl))bis(1-oxo-3-phenyl-2-propanol)], the negative-log EC50 (pEC50) was 7.00 to 9.00.
On the same count and under the same terms, the figure for `CCC(=O)N1CCC[C@H]1c1ncc(-c2ccc(-c3ccc(-c4cnc([C@@H]5CCCN5C(=O)CC)[nH]4)cc3)cc2)[nH]1` [Example 10, 5,5′-(4,4′-biphenyldiyl)bis(2-((2S)-1-propionyl-2-pyrrolidinyl)-1H-imidazole)] is 7.00 to 9.00; for `O=C(C1CC1)N1CCC[C@H]1c1ncc(-c2ccc(-c3ccc(-c4cnc([C@@H]5CCCN5C(=O)C5CC5)[nH]4)cc3)cc2)[nH]1` [Example 11, 5,5′-(4,4′-biphenyldiyl)bis(2-((2S)-1-(cyclopropylcarbonyl)-2-pyrrolidinyl)-1H-imidazole)] it is 7.00 to 9.00; for `O=C(CC1CC1)N1CCC[C@H]1c1ncc(-c2ccc(-c3ccc(-c4cnc([C@@H]5CCCN5C(=O)CC5CC5)[nH]4)cc3)cc2)[nH]1` [Example 12, 5,5′-(4,4′-biphenyldiyl)bis(2-((2S)-1-(cyclopropylacetyl)-2-pyrrolidinyl)-1H-imidazole)] it is 7.00 to 9.00.
Consider `O=C([C@H]1CCCO1)N1CCC[C@H]1c1ncc(-c2ccc(-c3ccc(-c4cnc([C@@H]5CCCN5C(=O)[C@H]5CCCO5)[nH]4)cc3)cc2)[nH]1` [Example 13, 5,5′-(4,4′-biphenyldiyl)bis(2-((2S)-1-((2R)-tetrahydro-2-furanylcarbonyl)-2-pyrrolidinyl)-1H-imidazole)], for which the pEC50 is 7.00 to 9.00.
The same measure, in the same setting: the figure for `CN(C)CC(=O)N1CCC[C@H]1c1ncc(-c2ccc(-c3ccc(-c4cnc([C@@H]5CCCN5C(=O)CN(C)C)[nH]4)cc3)cc2)[nH]1` [Example 14, 2,2′-(4,4′-biphenyldiylbis(1H-imidazole-5,2-diyl(2S)-2,1-pyrrolidinediyl))bis(N,N-dimethyl-2-oxoethanamine)] is 6.00 to 7.00; for `CC(C)[C@@H](O)C(=O)N1CCC[C@H]1c1ncc(-c2ccc(-c3ccc(-c4cnc([C@@H]5CCCN5C(=O)[C@H](O)C(C)C)[nH]4)cc3)cc2)[nH]1` [Example 16, (2R,2′R)-1,1′-(4,4′-biphenyldiylbis(1H-imidazole-5,2-diyl(2S)-2,1-pyrrolidinediyl))bis(3-methyl-1-oxo-2-butanol)] it is 7.00 to 9.00.
On to `O=C([C@@H](c1ccccc1)N1CCCC1)N1CCC[C@H]1c1ncc(-c2ccc(-c3ccc(-c4cnc([C@@H]5CCCN5C(=O)[C@@H](c5ccccc5)N5CCCC5)[nH]4)cc3)cc2)[nH]1` [Example 17, 5,5′-(4,4′-biphenyldiyl)bis(2-((2S)-1-((2R)-2-phenyl-2-(1-pyrrolidinyl)acetyl)-2-pyrrolidinyl)-1H-imidazole)], for which the pEC50 is 9.00 to 12.00.
The same measure, in the same setting: the figure for `O=C([C@@H](c1ccccc1)N1CCOCC1)N1CCC[C@H]1c1ncc(-c2ccc(-c3ccc(-c4cnc([C@@H]5CCCN5C(=O)[C@@H](c5ccccc5)N5CCOCC5)[nH]4)cc3)cc2)[nH]1` [Example 18, 4,4′-(4,4′-biphenyldiylbis(1H-imidazole-5,2-diyl(2S)-2,1-pyrrolidinediyl((1R)-2-oxo-1-phenyl-2,1-ethanediyl)))dimorpholine] is 9.00 to 12.00.
`CCN(CC)[C@@H](C(=O)N1CCC[C@H]1c1ncc(-c2ccc(-c3ccc(-c4cnc([C@@H]5CCCN5C(=O)[C@@H](c5ccccc5)N(CC)CC)[nH]4)cc3)cc2)[nH]1)c1ccccc1` [Example 21, (1R,1′R)-2,2′-(4,4′-biphenyldiylbis(1H-imidazole-5,2-diyl(2S)-2,1-pyrrolidinediyl))bis(N,N-diethyl-2-oxo-1-phenylethanamine)]: the pEC50 is 9.00 to 12.00.
